Reference: patent publication US8912216B2, “Hetaryl-[1,8]naphthyridine derivatives” (Merck Patent GmbH, priority 2010, dated 2014)
pIC50: −log10 of the molar value. Counter-ions that a name gives are not always drawn. Like-named read-outs stand apart in the source and are kept apart here.

Columns and labels:
[1] = target: T1, GST-ALK5 (Homo sapiens, UniProt P36897); test: In-vitro (enzyme) kinase assay, 384-well flashplate (Example 36); format: biochemical; settings: GST-ALK5, GST-SMAD2 substrate, 3 mM ATP, 30° C., 45 min; read-out: TβR activity (Example 36)
T1 sequence (P36897 34-503): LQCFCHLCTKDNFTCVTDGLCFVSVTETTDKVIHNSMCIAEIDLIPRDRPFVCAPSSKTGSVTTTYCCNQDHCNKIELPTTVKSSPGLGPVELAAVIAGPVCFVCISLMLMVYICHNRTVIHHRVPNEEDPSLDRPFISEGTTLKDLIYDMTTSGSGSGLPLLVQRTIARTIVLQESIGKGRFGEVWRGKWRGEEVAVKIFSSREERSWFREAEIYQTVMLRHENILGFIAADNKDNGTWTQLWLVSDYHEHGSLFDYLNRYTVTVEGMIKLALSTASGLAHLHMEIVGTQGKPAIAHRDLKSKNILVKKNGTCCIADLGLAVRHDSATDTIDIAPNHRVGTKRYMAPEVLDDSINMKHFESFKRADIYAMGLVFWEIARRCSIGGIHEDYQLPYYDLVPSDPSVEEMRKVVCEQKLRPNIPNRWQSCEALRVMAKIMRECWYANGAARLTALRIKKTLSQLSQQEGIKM
Experimental: In-vitro (Enzyme) Assay for Determination of the Efficacy of Inhibitors of the Inhibition of TGF-beta-Mediated Effects
The kinase assay was carried out as 384-well flashplate assay. 31.2 nM of GST-ALK5, 439 nM of GST-SMAD2 and 3 mM of ATP (with 0.3 μCi of ^33P-ATP/well) were incubated in a total volume of 35 μl (20 mM of HEPES, 10 mM of MgCl2, 5 mM of MnCl2, 1 mM of DTT, 0.1 of BSA, pH 7.4) without or with test substance (5-10 concentrations) at 30° C. for 45 min. The reaction was stopped using 25 μl of 200 mM EDTA solution, filtered with suction at room temperature after 30 min, and the wells were washed with 3 times 100 μl of 0.9% NaCl solution. Radioactivity was measured in the TopCount. The IC50 values were calculated using RS1.

[2] = tested on: TGF-beta-induced phosphorylation of Smad2 and Smad3 in Mv1-Lu cells; test: Inhibition of Smad2/3 phosphorylation in Mv1Lu cells (Example 35A); format: cell-based, mink Mustela vison; settings: Neogale vison, read-out: TβR activity (Example 35A)
Experimental: Inhibition of Smad2/3 Phosphorylation in Mv1Lu Cells by TGF-bta Receptor I Kinase Inhibitors
This assay was used to determine the inhibitory potency of compounds on TGF-beta-induced phosphorylation of Smad2 (Ser465/467) and Smad3 (Ser423/425). Mv1-Lu cells (lung epithelial cell line from mink Mustela vison; ATCC number: CCL-64) were seeded in DMEM (Invitrogen) supplemented with 10% fetal bovine serum (Pan Biotech) at a defined cell density in 24-well or 96-well plates (24-well plate: 1.5×10^5 cells per well; 96-well plate: 4×10^4 cells per well). Cell cultures were incubated in DMEM at 37° C. and 10% CO2. On the next day, the medium was replaced and cells were serum-starved for 16-20 hours. The following day, serial dilutions of compounds were added to the wells, pre-incubated for 1.5 hrs before recombinant TGF-beta 1 ligand (final concentration 5 ng/ml; R&D systems) was added. After one hour of ligand stimulation, lysates were prepared and analyzed using an enzyme-linked immunosorbent assay kit (PathScan Phospho-Smad2 Kit, Cell Signaling Technologies). The ELISA detects phosphorylated Smad2 as well as phosphorylated Smad3 with the phospho-specific antibody. TGF-beta stimulated cells and unstimulated cells served as positive and negative controls (100% and background control). The concentration of the vehicle DMSO was kept constant at 0.2% (v/v) in all wells. Dose-response relationships were fitted using curve fitting algorithms of the RS1 statistics software package (Brooks Automation Inc. RS/1—Statistical Tools Handbook. Release 6.2) to determine the concentration at which half-maximal inhibition (IC50) of Smad2/3 phosphorylation was achieved.

[3] = Mv1-Lu cells, TGF-beta 1 5 ng/ml, phospho-Smad2/3 ELISA

| SMILES | pIC50 [1] | pIC50 [2, 3] | pIC50 [2] |
| --- | --- | --- | --- |
| Fc1ccc(C(F)(F)F)cc1-c1cc(-c2cncc(-c3cnn(CCN4CCCC4)c3)c2)c2cccnc2n1 [compound 19, 2-(2-Fluoro-5-trifluoromethyl-phenyl)-4-{5-[1-(2-pyrrolidin-1-yl-ethyl)-1H-pyrazol-4-yl]-pyridin-3-yl}-[1,8]naphthyridine] | > 7.00 | > 7.00 | – |
| Fc1ccc(Cl)cc1-c1cc(-c2ccnc(-c3ccccc3)c2)c2cccnc2n1 [compound 20, 2-(5-Chloro-2-fluoro-phenyl)-4-(2-phenyl-pyridin-4-yl)-[1,8]naphthyridine] | < 5.00 | < 5.00 | – |
| Fc1ccc(Cl)cc1-c1cc(-c2cncc(-c3cnn(CCN4CCCC4)c3)c2)c2cccnc2n1 [compound 21, 2-(5-Chloro-2-fluoro-phenyl)-4-{5-[1-(2-pyrrolidin-1-yl-ethyl)-1H-pyrazol-4-yl]-pyridin-3-yl}-[1,8]naphthyridine] | > 7.00 | > 7.00 | – |
| Cn1cc(-c2cc(-c3cc(-c4cc(Cl)ccc4F)nc4ncccc34)c[n+]([O-])c2)cn1 [compound 22, 2-(5-chloro-2-fluoro-phenyl)-4-[5-(1-methyl-1H-pyrazol-4-yl)-1-oxy-pyridin-3-yl]-[1,8]naphthyridine] | 5.00 to 6.00 | 5.00 to 6.00 | – |
| CN1CCC(n2cc(-c3cncc(-c4cc(-c5cc(C(F)(F)F)ccc5F)nc5ncccc45)c3)cn2)CC1 [compound 23, 2-(2-fluoro-5-trifluoromethyl-phenyl)-4-{5-[1-(1-methyl-piperidin-4-yl)-1H-pyrazol-4-yl]-pyridin-3-yl}-[1,8]naphthyridine] | > 7.00 | > 7.00 | – |
| Fc1ccccc1-c1cc(-c2cncc(-c3cnn(CCN4CCCC4)c3)c2)c2cccnc2n1 [compound 24, 2-(2-Fluoro-phenyl)-4-{5-[1-(2-pyrrolidin-1-yl-ethyl)-1H-pyrazol-4-yl]-pyridin-3-yl}-[1,8]naphthyridine] | > 7.00 | > 7.00 | – |
| CN1CCC(n2cc(-c3cncc(-c4cc(-c5cc(Cl)ccc5F)nc5ncccc45)c3)cn2)CC1 [compound 25, 2-(5-chloro-2-fluoro-phenyl)-4-{5-[1-(1-methyl-piperidin-4-yl)-1H-pyrazol-4-yl]-pyridin-3-yl}-[1,8]naphthyridine] | > 7.00 | – | > 7.00 |
| Fc1ccc(F)c(-c2cc(-c3cncc(-c4cnn(CCN5CCCC5)c4)c3)c3cccnc3n2)c1 [compound 26, 2-(2,5-Difluoro-phenyl)-4-{5-[1-(2-pyrrolidin-1-yl-ethyl)-1H-pyrazol-4-yl]-pyridin-3-yl}-[1,8]naphthyridine] | > 7.00 | > 7.00 | – |
| Fc1ccccc1-c1cc(-c2cncc(-c3cnn(C4CCNCC4)c3)c2)c2cccnc2n1 [compound 29, 2-(2-Fluoro-phenyl)-4-[5-(1-piperidin-4-yl-1H-pyrazol-4-yl)-pyridin-3-yl]-[1,8]naphthyridine dihydrochloride] | > 7.00 | – | > 7.00 |
| CN1CCC(n2cc(-c3cncc(-c4cc(-c5ccccc5F)nc5ncccc45)c3)cn2)CC1 [compound 30, 2-(2-fluoro-phenyl)-4-{5-[1-(1-methyl-piperidin-4-yl)-1H-pyrazol-4-yl]-pyridin-3-yl}-[1,8]naphthyridine] | > 7.00 | > 7.00 | – |
| Cn1cc(-c2cc(-c3cc(-c4cc(Cl)ccc4F)nc4ncccc34)cnc2N)cn1 [compound 31, 5-[2-(5-chloro-2-fluoro-phenyl)-[1,8]naphthyridin-4-yl]-3-(1-methyl-1H-pyrazol-4-yl)-pyridin-2-ylamine] | 5.00 to 6.00 | < 5.00 | – |
| Fc1ccc(C(F)(F)F)cc1-c1cc(-c2cncc(-c3cnn(CCN4CCOCC4)c3)c2)c2cccnc2n1 [compound 34, 2-(2-Fluoro-5-trifluoromethyl-phenyl)-4-{5-[1-(2-morpholin-4-yl-ethyl)-1H-pyrazol-4-yl]-pyridin-3-yl}-[1,8]naphthyridine] | > 7.00 | 6.00 to 7.00 | – |
| CN1CCC(n2cc(-c3cncc(-c4cc(-c5cc(F)ccc5F)nc5ncccc45)c3)cn2)CC1 [compound 35, 2-(2,5-Difluoro-phenyl)-4-{5-[1-(1-methyl-piperidin-4-yl)-1H-pyrazol-4-yl]-pyridin-3-yl}-[1,8]naphthyridine] | > 7.00 | > 7.00 | – |
| OCCn1cc(-c2cncc(-c3cc(-c4cc(C(F)(F)F)ccc4F)nc4ncccc34)c2)cn1 [compound 37, 2-(4-{5-[2-(2-Fluoro-5-trifluoromethyl-phenyl)-[1,8]naphthyridin-4-yl]-pyridin-3-yl}-pyrazol-1-yl)-ethanol] | > 7.00 | 6.00 to 7.00 | – |
| COCCN1CCC(n2cc(-c3cncc(-c4cc(-c5cc(Cl)ccc5F)nc5ncccc45)c3)cn2)CC1 [compound 44, 2-(5-chloro-2-fluoro-phenyl)-4-(5-{1-[1-(2-methoxy-ethyl)-piperidin-4-yl]-1H-pyrazol-4-yl}-pyridin-3-yl)-[1,8]naphthyridine] | > 7.00 | > 7.00 | – |
| OCCN1CCC(n2cc(-c3cncc(-c4cc(-c5cc(Cl)ccc5F)nc5ncccc45)c3)cn2)CC1 [compound 45, 2-[4-(4-{5-[2-(5-Chloro-2-fluoro-phenyl)-[1,8]naphthyridin-4-yl]-pyridin-3-yl}-pyrazol-1-yl)-piperidin-1-yl]-ethanol] | > 7.00 | > 7.00 | – |
| CCN1CCC(n2cc(-c3cncc(-c4cc(-c5cc(Cl)ccc5F)nc5ncccc45)c3)cn2)CC1 [compound 46, 2-(5-Chloro-2-fluoro-phenyl)-4-{5-[1-(1-ethyl-piperidin-4-yl)-1H-pyrazol-4-yl]-pyridin-3-yl}-[1,8]naphthyridine] | > 7.00 | > 7.00 | – |
| Fc1ccc(F)c(-c2cc(-c3cncc(-c4cnn(C5CCNCC5)c4)c3)c3cccnc3n2)c1 [compound 47, 2-(2,5-Difluoro-phenyl)-4-[5-(1-piperidin-4-yl-1H-pyrazol-4-yl)-pyridin-3-yl]-[1,8]naphthyridine] | > 7.00 | > 7.00 | – |
| Fc1ccc(F)c(-c2cc(-c3cncc(-c4cnn(CCCN5CCOCC5)c4)c3)c3cccnc3n2)c1 [compound 48, 2-(2,5-Difluoro-phenyl)-4-{5-[1-(3-morpholin-4-yl-propyl)-1H-pyrazol-4-yl]-pyridin-3-yl}-[1,8]naphthyridine] | > 7.00 | 6.00 to 7.00 | – |
| Cc1cccc(-c2cc(-c3cncc(-c4cnn(C5CCN(C)CC5)c4)c3)c3cccnc3n2)n1 [compound 49, 4-{5-[1-(1-Methyl-piperidin-4-yl)-1H-pyrazol-4-yl]-pyridin-3-yl}-2-(6-methyl-pyridin-2-yl)-[1,8]naphthyridine] | > 7.00 | > 7.00 | – |
| COCCN1CCC(n2cc(-c3cncc(-c4cc(-c5cc(F)ccc5F)nc5ncccc45)c3)cn2)CC1 [compound 50, 2-(2,5-Difluoro-phenyl)-4-(5-{1-[1-(2-methoxy-ethyl)-piperidin-4-yl]-1H-pyrazol-4-yl}-pyridin-3-yl)-[1,8]naphthyridine] | > 7.00 | > 7.00 | – |
| CN1CCC(n2cc(-c3cncc(-c4cc(-c5cc(Cl)ccc5F)nc5ncccc45)n3)cn2)CC1 [compound 51, 2-(5-Chloro-2-fluoro-phenyl)-4-{6-[1-(1-methyl-piperidin-4-yl)-1H-pyrazol-4-yl]-pyrazin-2-yl}-[1,8]naphthyridine] | > 7.00 | > 7.00 | – |
